Assay results: patent publication US10364256B2 (GlaxoSmithKline Intellectual Property Development Limited, priority 2015, dated 2019)
Read-outs that look alike come from different tables or passages of the source.

How the values were obtained:
[1] = molecular target: T1, Keap1 Kelch domain (321-609) / TAMRA-labeled 16mer NRF2 peptide (ETGE motif) (Homo sapiens, UniProt Q14145); assay: NRF2-Keap1 FP Assay (Keap1 Kelch fluorescence polarization); type: binding; details: 20 nM Keap1 (321-609), 8 nM Tamra labeled peptide
T1 construct: the Kelch domain (321-609) of Keap1 is used
T1 sequence (Q14145 321-609): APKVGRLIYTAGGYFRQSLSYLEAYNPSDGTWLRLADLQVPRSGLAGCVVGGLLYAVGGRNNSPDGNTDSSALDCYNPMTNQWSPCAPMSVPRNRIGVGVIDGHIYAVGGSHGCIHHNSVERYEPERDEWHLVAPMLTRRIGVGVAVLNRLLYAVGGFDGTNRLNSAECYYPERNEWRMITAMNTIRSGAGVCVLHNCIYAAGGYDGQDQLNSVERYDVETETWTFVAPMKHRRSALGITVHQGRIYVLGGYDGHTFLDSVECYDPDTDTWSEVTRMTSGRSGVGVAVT
Summary of the method: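 Compound dilutions (3-fold) were incubated 1 hr at room temperature with 20 nM Keap1 Kelch (321-609) and 8 nM TAMRA-labeled ETGE 16mer peptide. Buffer was 50 mM Tris pH 8.0, 100 mM NaCl, 5 mM MgCl2, 1 mM DTT, 2 mM CHAPS, 0.005% BSA. Fluorescence polarization (mP) was normalized to controls and fitted with a four-parameter equation to give pIC50.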

[2] = system: NQO1 specific enzyme activity in BEAS-2B cells (marker for NRF2 activation); assay: BEAS-2B NQO1 MTT Assay; type: cell-based; details: Homo sapiens, compound incubated 48 hours, read-out: EC50 (NQO1 specific enzyme activity induction)
Summary of the method: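 NQO1 specific activity induction is derived from the rate of MTT reduction (ΔOD/min, 570 nm, 30 min kinetic read) in crude lysates of BEAS-2B cells exposed to compound for 48 h. A 3-parameter fit gives EC50, reported as pEC50; part of each lysate goes to Cell Titer Glo.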

## CC[C@@H]1CN(Cc2cccc(-c3cccc(-n4ncc(C(=O)O)c4C4CC4c4cn(C)nn4)c3)c2)Cc2ccccc2O1 (stereo partly drawn) [Example 129, 1-(3′-(((R)-2-ethyl-2,3-dihydrobenzo[f][1,4]oxazepin-4(5H)-yl)methyl)-[1,1′-biphenyl]-3-yl)-5-(2-(1-methyl-1H-1,2,3-triazol-4-yl)cyclopropyl)-1H-pyrazole-4-carboxylic Acid]
[1]
  IC50: 10 to 100 nM
[2]
  EC50: 100 to 1000 nM

## Cn1cc([C@@H]2C[C@H]2c2c(C(=O)O)cnn2-c2cccc(-c3cccc(OCC4CCCC(C(F)(F)F)C4)c3)c2)nn1 (mixture of isomers) [Example 147, 5-((1,2-trans)-2-(1-Methyl-1H-1,2,3-triazol-4-yl)cyclopropyl)-1-(3′-((3-(trifluoromethyl)cyclohexyl)methoxy)-[1,1′-biphenyl]-3-yl)-1H-pyrazole-4-carboxylic acid]
[1]
  IC50: 100 to 1000 nM
[2]
  EC50: 10 to 100 nM

## Cn1cc([C@H]2C[C@@H]2c2c(C(=O)O)cnn2-c2cccc(-c3cccc(OCc4cccc(-c5ccccc5)c4)c3)c2)nn1 (racemic) [Example 238, 1-(3′-([1,1′-Biphenyl]-3-ylmethoxy)-[1,1′-biphenyl]-3-yl)-5-((1,2- trans)-2-(1-methyl-1H-1,2,3-triazol-4-yl)cyclopropyl)-1H-pyrazole-4-carboxylic acid]
[1]
  IC50: 100 to 1000 nM
[2]
  EC50: 100 to 1000 nM

## Cn1cc(C2CC2c2c(C(=O)O)cnn2-c2cccc(-c3cccc(OCCC(C)(C)C)c3)c2)nn1 (stereo not drawn) [Example 225, 1-(3′-(3,3-Dimethylbutoxy)-[1,1′-biphenyl]-3-yl)-5-(2-(1-methyl-1H-1,2,3-triazol-4-yl)cyclopropyl)-1H-pyrazole-4-carboxylic acid]
[1]
  IC50: 10 to 100 nM
[2]
  EC50: 10 to 100 nM

## Cn1cc(C2CC2c2c(C(=O)O)cnn2-c2cccc(-c3cccc(OCc4ccc(F)cc4)c3)c2)nn1 (stereo not drawn) [Example 223, 1-(3′-((4-Fluorobenzyl)oxy)-[1,1′-biphenyl]-3-yl)-5-(2-(1-methyl-1H-1,2,3-triazol-4-yl)cyclopropyl)-1H-pyrazole-4-carboxylic acid]
[1]
  IC50: 100 to 1000 nM
[2]
  EC50: 100 to 1000 nM

## COC(CC1CCCCC1)c1cccc(-c2cccc(-n3ncc(C(=O)O)c3C3CC3c3cn(C)nn3)c2)c1 (stereo not drawn) [Example 216, 1-(3′-(2-Cyclohexyl-1-methoxyethyl)-[1,1′-biphenyl]-3-yl)-5-(2-(1-methyl-1H-1,2,3-triazol-4-yl)cyclopropyl)-1H-pyrazole-4-carboxylic Acid]
[1]
  IC50: 10 to 100 nM
[2]
  EC50: 10 to 100 nM

## CCC[C@@H]1CCCCN1C(=O)c1cccc(-c2cccc(-n3nc(C)c(C(=O)O)c3C3CC3c3cn(C)nn3)c2)c1 (stereo partly drawn) [Example 202, 3-Methyl-5-(2-(1-methyl-1H-1,2,3-triazol-4-yl)cyclopropyl)-1-(3′-((R)-2-propylpiperidine-1-carbonyl)-[1,1′-biphenyl]-3-yl)-1H-pyrazole-4-carboxylic acid]
[1]
  IC50: 10 to 100 nM
[2]; BEAS-2B, 48 h
  EC50: 100 to 1000 nM

## CC(Oc1cccc(-c2cccc(-n3ncc(C(=O)O)c3C3CC3c3cn(C)nn3)c2)c1)c1ccccc1 (stereo not drawn) [Example 235, 5-(2-(1-Methyl-1H-1,2,3-triazol-4-yl)cyclopropyl)-1-(3′-(1-phenylethoxy)-[1,1′-biphenyl]-3-yl)-1H-pyrazole-4-carboxylic Acid]
[1]
  IC50: 10 to 100 nM
[2]
  EC50: 100 to 1000 nM

## Cc1nnc(-c2cccc(-c3cccc(-n4ncc(C(=O)O)c4C4CC4)c3)c2)o1 [Example 210, 5S-Cyclopropyl-1-(3′-(5-methyl-1,3,4-oxadiazol-2-yl)-[1,1′-biphenyl]-3-yl)-1H-pyrazole-4-carboxylic acid]
[1]
  IC50: > 10000 nM
[2]
  EC50: 100 to 1000 nM

## CCC1CCC(COc2cccc(-c3cccc(-n4ncc(C(=O)O)c4[C@@H]4C[C@H]4c4cn(C)nn4)c3)c2)CC1 (mixture of isomers) [Example 150, 1-(3′-((4-Ethylcyclohexyl)methoxy)-[1,1′-biphenyl]-3-yl)-5-((1,2-trans)-2-(1-methyl-1H-1,2,3-triazol-4-yl)cyclopropyl)-1H-pyrazole-4-carboxylic acid]
[1]
  IC50: 100 to 1000 nM
[2]
  EC50: 10 to 100 nM

## CC(CC1CCCCC1)Oc1cccc(-c2cccc(-n3ncc(C(=O)O)c3C3CC3c3cn(C)nn3)c2)c1 (stereo not drawn) [Example 218, 1-(3′-((1-Cyclohexylpropan-2-yl)oxy)-[1,1′-biphenyl]-3-yl)-5-(2-(1-methyl-1H-1,2,3-triazol-4-yl)cyclopropyl)-1H-pyrazole-4-carboxylic Acid]
[1]
  IC50: 10 to 100 nM
[2]
  EC50: 10 to 100 nM

## CCC[C@@H]1CCCCN1C(=O)c1cccc(-c2cccc(-n3ncc(C(=O)O)c3C3CC3c3cnn(C)c3)c2)c1 (stereo partly drawn) [Example 213, 5-(2-(1-Methyl-1H-pyrazol-4-yl)cyclopropyl)-1-(3′-((R)-2-propylpiperidine-1-carbonyl)-[1,1′-biphenyl]-3-yl)-1H-pyrazole-4-carboxylic Acid]
[1]
  IC50: 10 to 100 nM
[2]; BEAS-2B, 48 h
  EC50: 100 to 1000 nM

## Cn1cc(C2CC2c2c(C(=O)O)cnn2-c2cccc(-c3cccc(OC4CCOCC4)c3F)c2)nn1 (stereo not drawn) [Example 234, 1-(2′-Fluoro-3′-((tetrahydro-2H-pyran-4-yl)oxy)-[1,1′-biphenyl]-3-yl)-5-(2-(1-methyl-1H-1,2,3-triazol-4-yl)cyclopropyl)-1H-pyrazole-4-carboxylic Acid]
[1]
  IC50: 10 to 100 nM
[2]
  EC50: 1000 to 10000 nM

## Cn1cc(C2CC2c2c(C(=O)O)cnn2-c2cccc(-c3cccc(CCC4CCCCC4)c3)c2)nn1 (stereo not drawn) [Example 233, 1-(3′-(2-Cyclohexylethyl)-[1,1′-biphenyl]-3-yl)-5-(2-(1-methyl-1H-1,2,3-triazol-4-yl)cyclopropyl)-1H-pyrazole-4-carboxylic Acid]
[1]
  IC50: 100 to 1000 nM
[2]
  EC50: 1 to 10 nM

## Cn1cc([C@@H]2C[C@H]2c2c(C(=O)O)cnn2-c2cccc(-c3cccc(OCC4CCCCC4)c3F)c2)nn1 (racemic) [Example 152, 1-(3′-(Cyclohexylmethoxy)-2′-fluoro-[1,1′-biphenyl]-3-yl)-5-((1,2-trans)-2-(1-methyl-1H-1,2,3-triazol-4-yl)cyclopropyl)-1H-pyrazole-4-carboxylic Acid]
[1]
  IC50: 10 to 100 nM
[2]
  EC50: 10 to 100 nM

## Cn1cc(C2CC2c2c(C(=O)O)cnn2-c2cccc(-c3cccc(OCc4ccccc4)c3)c2)nn1 (stereo not drawn) [Example 221]
[1]
  IC50: 100 to 1000 nM
[2]
  EC50: 100 to 1000 nM

## CCC[C@@H]1CCCCN1C(=O)c1cccc(-c2cccc(-n3ncc(C(=O)O)c3[C@H]3C[C@@H]3c3cn(C)nn3)c2)c1 [Example 51g, 5-[(1S,2S)-2-(1-methyl-1H-1,2,3-triazol-4-yl)cyclopropyl]-1-(3-{3-[(2R)-2-propylpiperidine-1-carbonyl]phenyl}phenyl)-1H-pyrazole-4-carboxylic Acid]
[1]
  IC50: 100 to 1000 nM
[2]; BEAS-2B, 48 h
  EC50: 1000 to 10000 nM

## CCn1cc([C@H]2C[C@@H]2c2c(C(=O)O)cnn2-c2cccc(-c3cccc(OC(C)C4CCCCC4)c3)c2)nn1 (mixture of isomers) [Example 192, 1-(3′-(1-cyclohexylethoxy)-[1,1′-biphenyl]-3-yl)-5-((1,2-trans)-2-(1-ethyl-1H-1,2,3-triazol-4-yl)cyclopropyl)-1H-pyrazole-4-carboxylic acid]
[1]
  IC50: 10 to 100 nM
[2]
  EC50: 1 to 10 nM

## Cn1cc([C@@H]2C[C@H]2c2c(C(=O)O)cnn2-c2cccc(-c3cccc(OCCC4CCCCC4)c3)c2)nn1 (racemic) [Example 245, 1-(3′-(2-cyclohexylethoxy)-[1,1′-biphenyl]-3-yl)-5-(trans-2-(1-methyl-1H-1,2,3-triazol-4-yl)cyclopropyl)-1H-pyrazole-4-carboxylic Acid]
[1]
  IC50: 10 to 100 nM
[2]
  EC50: 10 to 100 nM

## CC(Oc1cccc(-c2cccc(-n3ncc(C(=O)O)c3C3CC3c3cn(C)nn3)c2)c1)C1CC1 (stereo not drawn) [Example 231, 1-(3′-(1-Cyclopropylethoxy)-[1,1′-biphenyl]-3-yl)-5-(2-(1-methyl-1H-1,2,3-triazol-4-yl)cyclopropyl)-1H-pyrazole-4-carboxylic acid]
[1]
  IC50: 10 to 100 nM
[2]
  EC50: 100 to 1000 nM

## COC1CCCCC1COc1cccc(-c2cccc(-n3ncc(C(=O)O)c3[C@H]3C[C@@H]3c3cn(C)nn3)c2)c1 (mixture of isomers) [Example 177, 1-(3′-((2-Methoxycyclohexyl)methoxy)-[1,1′-biphenyl]-3-yl)-5-((1,2-trans)-2-(1-methyl-1H-1,2,3-triazol-4-yl)cyclopropyl)-1H-pyrazole-4-carboxylic acid]
[1]
  IC50: 100 to 1000 nM
[2]
  EC50: 100 to 1000 nM

## CCC[C@@H]1CCCCN1C(=O)c1cccc(-c2cccc(-n3ncc(C(=O)O)c3C3CC3(F)F)c2)c1 (stereo partly drawn) [Example 67, 5-(2,2-Difluorocyclopropyl)-1-(3′-((R)-2-propylpiperidine-1-carbonyl)-[1,1′-biphenyl]-3-yl)-1H-pyrazole-4-carboxylic Acid]
[1]
  IC50: 10 to 100 nM
[2]; BEAS-2B, 48 h
  EC50: 100 to 1000 nM

## CC(CC1CCCCC1)Oc1cccc(-c2cccc(-n3ncc(C(=O)O)c3C3CC3)c2)c1 (stereo not drawn) [Example 161, 1-(3′-((1-Cyclohexylpropan-2-yl)oxy)-[1,1′-biphenyl]-3-yl)-5-cyclopropyl-1H-pyrazole-4-carboxylic Acid]
[1]
  IC50: 1000 to 10000 nM
[2]
  EC50: 100 to 1000 nM

## CC(Oc1cccc(-c2cccc(-n3ncc(C(=O)O)c3[C@H]3C[C@@H]3c3cn(C)nn3)c2)c1)c1ccc(-c2ccccc2)cc1 (mixture of isomers) [Example 240, 1-(3′-(1-([1,1′-Biphenyl]-4-yl)ethoxy)-[1,1′-biphenyl]-3-yl)-5-((1,2- trans)-2-(1-methyl-1H-1,2,3-triazol-4-yl)cyclopropyl)-1H-pyrazole-4-carboxylic acid]
[1]
  IC50: 100 to 1000 nM
[2]
  EC50: 100 to 1000 nM
